Assay results taken from ChEMBL document CHEMBL1129632, “Synthesis and contractile activities of cyclic thrombin receptor-derived peptide analogues with a Phe-Leu-Leu-Arg motif: importance of the Phe/Arg relative conformation and the primary amino group for activity” (1996).
Residues, ends and D or L forms follow the SMILES beside them.

Species: Rattus norvegicus
Assay: Relative biological activity in gastric contractile assay of rat (Relative activity is EC(peptide)/EC (compound 4) [EC contraction of each agonist to that of compound 4])
Assay type: functional, Stomach
Work on `CC(C)C[C@@H]1NC(=O)[C@H](Cc2ccccc2)NC(=O)CCCCCNC(=O)[C@H](CCCN=C(N)N)NC(=O)[C@H](CC(C)C)NC1=O` (single isomer, unassigned) yielded a Relative activity greater than 1000. `CC(C)C[C@H](NC(=O)[C@H](CC(C)C)NC(=O)[C@H](Cc1ccccc1)NC(=O)[C@@H](N)CO)C(=O)N[C@@H](CCCN=C(N)N)C(N)=O` showed a Relative activity of 1. Work on `CC(C)C[C@@H]1NC(=O)[C@H](Cc2ccccc2)NC(=O)CNC(=O)[C@H](CCCN=C(N)N)NC(=O)[C@H](CC(C)C)NC1=O` (HELM PEPTIDE1{F.L.L.R.G}$PEPTIDE1,PEPTIDE1,1:R1-5:R2$$$V2.0) yielded a Relative activity of 390. `CC(C)C[C@@H]1NC(=O)[C@H](CC(C)C)NC(=O)[C@H](Cc2ccccc2)NC(=O)[C@@H](N)CCCCNC(=O)[C@H](CCCN=C(N)N)NC1=O` (HELM PEPTIDE1{K.F.L.L.R}$PEPTIDE1,PEPTIDE1,1:R3-5:R2$$$V2.0) showed a Relative activity of 2.4.
